Assay results from patent US9388170B2, “Substituted aminoquinazolines useful as kinases inhibitors” (TELIGENE LTD., priority 2012, dated 2016).
pIC50: −log10 of the molar value. Converted amounts (≈) assume the structure as drawn. Read-outs that look alike come from different tables or passages of the source.

Tests used:
[1] = In vivo A431 xenograft body weight change; conditions: nude mice, 10 mg/kg
Procedure: (§1) A representative protocol for the in vivo experiment to establish the subcutaneous A431 cell line xenograft model in nude mice and to evaluate the in vivo therapeutic efficacy of the compounds is similar to the protocol described for subcutaneous NCI—H1975 cell line xenograft model in nude mice. […] Tumor growth inhibition (TGI, %) was calculated.

[2] = In vivo NCI-H1975 xenograft study body weight change; conditions: nude mice, 15 mg/kg
Procedure: (§2) A representative protocol for the in vivo experiment is as followed to establish the subcutaneous NCI-H1975 cell line xenograft model in nude mice and to evaluate the in vivo therapeutic efficacy of the compounds: H1975 cells were cultured in RPMI1640 containing 10% fetal bovine serum, 1% L-glutamine, 100 U/mL penicillinG and 100 μg/mL streptomycin. Cells in logarithmic growth phase were harvested and resuspended in 1×PBS for implantation. Tumor xenografts were established by injecting tumor cells 5×10^6/mouse into the right flank by sc under sterile conditions. When the tumors reached an appropriate size (100-200 mm^3), mice were randomized into 6 mice per group (8 mice in control group). The tumors were measured using a caliper in two dimensions, length (a), and width (b). Tumor volumes were estimated from measurements of two diameters of the individual tumors as follows: Tumor Volume(mm^3)=(a×b^2)/2 The tumor sizes and animal body weights were measured twice a week. Mice were observed daily for clinical signs. Blood samples were collected 2 hours after last treatment, plasma samples were prepared and stored at -80° C. Tumor tissues were separated, weighed, taken picture, and subsequently stored at -80° C. for further analysis. All animal experiments were performed in accordance with the Guidelines for Use and Care of Animals of the University of Traditional Medicine. The parameters for in vivo efficacy evaluation were calculated according to the guidance of SFDA. Percent T/C (%) was calculated with the following formula: T/C (%)=(TRTV/CRTV)×100%, where TRTV and CRTV stand for relative tumor volume in treatment group and vehicle control group, respectively. Relative tumor volume (RTV) was calculated using the formula: RTV=Vt/V0, where Vt represents volume on testing day, and V0 represents volume on first day of treatment.

[3] = In vivo NCI-H1975 study AST and ALT change; conditions: NCI-H1975 xenograft, nude mice, 15 mg/kg; in U/L (unit assumed)
Procedure: as §2

A549 = assay: Cell proliferation assay (MTT), A549; type: cell-based; conditions: Homo sapiens, A549 cells, 72 hours, read-out: potency (IC50), A549 cell assay
Procedure: (§3) A Representative Number of Compounds were Assayed Against Different Cancer Cell Lines Such as A431, BT474, NCI—H1975, SK—OV-3, SK—Br-3 and A549 Using the Cell Proliferation Assays:
(§4) 1. 5×10^3 cells per well in 100 μl of medium were seeded in 96-well plate, here the medium contained 5% FBS
(§5) 2. 24 hours later, 100 μl fresh medium was added with various concentrations of compounds into each well, while the medium here was free of FBS.
(§6) 3. After the cells were treated with compounds for 72 hours, 20 μl MTT (5 mg/ml) was added into each well, and then the assay plate was incubated at 37° C. for 4 more hours.
(§7) 4. The assay plate was centrifuged at 800 g for 10 min. The medium was aspirated, 150 μl DMSO was added into each well. The plate was gently shaken for 10 min.
(§8) 5. The absorbance at 570 nm was measured on the plate reader.

EGFR (T790M/L858R) = EGFR (T790M/L858R) (Homo sapiens (Human), UniProt P00533, L858R/T790M); assay: In vitro EGFR (T790M/L858R) kinase activity inhibition assay (Kinase-Glo Plus luminescence); type: biochemical; conditions: 10 μM ATP, read-out: potency (IC50), enzyme assay (EGFR/T790M)
Procedure: 2. […] It measures kinase activity by quantitating the amount of ATP remaining in solution following a kinase reaction. The luminescent signal from the assay is correlated with the amount of ATP present and is inversely correlated with the amount of kinase activity. […] Luminescence signal was measured using a BioTek Synergy 2 microplate reader.
3. […] The luminescence data were analyzed using the computer software, Graphpad Prism. […] The IC50 value was determined by the concentration causing a half-maximal percent activity.

A431 = assay: Cell proliferation assay (MTT), A431; type: cell-based; conditions: Homo sapiens, A-431, A431 cells, 72 hours
Procedure: as §3, §4, §5, §6, §7, §8

NCI—H1975 = assay: Cell proliferation assay (MTT), NCI-H1975; type: cell-based; conditions: Homo sapiens, NCI—H1975 cells, 72 hours, read-out: potency (IC50), NCI—H1975 cell assay
Procedure: as §3, §4, §5, §6, §7, §8

[4] = Solubility measurement (HPLC); type: physicochemical; conditions: thermodynamic from solid
Procedure: The compound was diluted with acetonitrile to 100 mL.
The solution was shook for 2 minutes and left for 30 minutes at 25° C. After standing for 30 minutes, precipitate was formed in the bottom of the EP. The solutions was filtered through 0.2 um membrane filter, and then diluted by 50 times with water.
The standard and sample solutions were injected into the HPLC on a Shim-Pack CLC-ODS C18 column (150 mm×6.0 mm, 5 um) with the same volume. The mobile phase consisted of acetonitrile with 2% […] −20 mM KH2PO4 buffer (pH=6.8) at a flow rate of 1 mL/minutes (40:60). The detection wavelength is at 264 nm. Calculation: solubility of sample=the concentration of standard×Area of sample×50/Area of standard.

[5] = test system: NCI—H1975 cell line xenograft; assay: In vivo subcutaneous NCI-H1975 xenograft efficacy; conditions: nude mice
Procedure: A representative protocol for the in vivo experiment is as followed to establish the subcutaneous NCI—H1975 cell line xenograft model in nude mice and to evaluate the in vivo therapeutic efficacy of the compounds: H1975 cells were cultured in RPMI1640 containing 10% fetal bovine serum, 1% L-glutamine, 100 U/mL penicillinG and 100 μg/mL streptomycin. Cells in logarithmic growth phase were harvested and resuspended in 1×PBS for implantation.
Tumor xenografts were established by injecting tumor cells 5×10^6/mouse into the right flank by sc under sterile conditions. When the tumors reached an appropriate size (100-200 mm^3), mice were randomized into 6 mice per group (8 mice in control group). The tumors were measured using a caliper in two dimensions, length (a), and width (b). […]
The tumor sizes and animal body weights were measured twice a week. […] The parameters for in vivo efficacy evaluation were calculated according to the guidance of SFDA. Percent T/C (%) was calculated with the following formula: T/C (%)=(TRTV/CRTV)×100%, where TRTV and CRTV stand for relative tumor volume in treatment group and vehicle control group, respectively. Relative tumor volume (RTV) was calculated using the formula: RTV=Vt/V0, where Vt represents volume on testing day, and V0 represents volume on first day of treatment. […]

SK—OV-3 = assay: Cell proliferation assay (MTT), SK-OV-3; type: cell-based; conditions: Homo sapiens, SK—OV-3 cells, 72 hours, read-out: potency (IC50), SK—OV-3 cell assay
Procedure: as §3, §4, §5, §6, §7, §8

SK—Br-3 = assay: Cell proliferation assay (MTT), SK-Br-3; type: cell-based; conditions: Homo sapiens, SK—Br-3 cells, 72 hours, read-out: potency (IC50), SK—Br-3 cell assay
Procedure: as §3, §4, §5, §6, §7, §8

BT474 = assay: Cell proliferation assay (MTT), BT474; type: cell-based; conditions: Homo sapiens, BT-474, BT474 cells, 72 hours
Procedure: as §3, §4, §5, §6, §7, §8

A431 cell line xenograft = assay: In vivo subcutaneous A431 xenograft efficacy; conditions: nude mice, 10 mg/kg by oral gavage once daily for 14 days
Procedure: as §1

[6] = aqueous buffer, pH 6.8 buffer solution (20 mM), 25° C., read-out: Solubility at pH 6.8
[7] = buffer solution (pH 7.6), 25 °C, pH 7.6, aqueous buffer, read-out: Solubility at pH 7.6

Chain of EGFR (T790M/L858R) (P00533 25-1210 T790M/L858R): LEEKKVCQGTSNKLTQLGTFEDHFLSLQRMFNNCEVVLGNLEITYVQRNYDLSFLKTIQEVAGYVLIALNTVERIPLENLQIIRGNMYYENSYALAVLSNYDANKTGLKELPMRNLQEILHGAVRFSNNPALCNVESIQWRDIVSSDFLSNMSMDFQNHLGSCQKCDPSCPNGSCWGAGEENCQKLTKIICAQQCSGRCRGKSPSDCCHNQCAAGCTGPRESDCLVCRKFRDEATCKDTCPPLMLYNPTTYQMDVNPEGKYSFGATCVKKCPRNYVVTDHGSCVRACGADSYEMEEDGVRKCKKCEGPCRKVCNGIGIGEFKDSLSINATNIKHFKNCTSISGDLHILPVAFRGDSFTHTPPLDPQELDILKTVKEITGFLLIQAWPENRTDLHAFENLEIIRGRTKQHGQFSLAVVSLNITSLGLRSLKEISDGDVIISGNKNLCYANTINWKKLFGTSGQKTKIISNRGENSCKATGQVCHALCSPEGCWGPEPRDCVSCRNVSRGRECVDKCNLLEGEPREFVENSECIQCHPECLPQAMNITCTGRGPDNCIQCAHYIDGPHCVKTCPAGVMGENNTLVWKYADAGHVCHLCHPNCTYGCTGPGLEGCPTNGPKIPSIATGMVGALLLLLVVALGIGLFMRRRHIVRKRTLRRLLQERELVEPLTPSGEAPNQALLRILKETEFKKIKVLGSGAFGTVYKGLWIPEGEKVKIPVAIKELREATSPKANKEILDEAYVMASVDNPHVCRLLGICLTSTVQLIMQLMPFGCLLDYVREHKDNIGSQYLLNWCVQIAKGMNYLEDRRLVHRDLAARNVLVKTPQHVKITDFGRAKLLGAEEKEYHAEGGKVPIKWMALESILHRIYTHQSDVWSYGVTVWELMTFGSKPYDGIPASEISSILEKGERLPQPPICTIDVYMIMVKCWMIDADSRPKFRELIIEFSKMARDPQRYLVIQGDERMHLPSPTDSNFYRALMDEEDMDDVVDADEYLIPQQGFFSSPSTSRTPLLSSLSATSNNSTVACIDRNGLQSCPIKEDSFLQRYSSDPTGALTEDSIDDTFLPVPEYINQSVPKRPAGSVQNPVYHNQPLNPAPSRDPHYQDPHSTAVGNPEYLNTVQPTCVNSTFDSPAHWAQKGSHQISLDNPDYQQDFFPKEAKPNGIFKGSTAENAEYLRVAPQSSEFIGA

With CN(C)C/C=C/C(=O)Nc1cc2c(Nc3ccc(F)c(Cl)c3)ncnc2cc1O[C@H]1CCOC1 [Afatinib, reference compound] the “Body weight change, Day 7” value [1] was −2.2%, the “Body weight change, Day 10” value [1] was 0.4% and the “Day 7 Weight change” value [2] was −0.9%. It also gave an ALT [3] of 49.50 and an AST [3] of 265.67.

Work on C#Cc1cccc(Nc2ncnc3cc(O[C@H]4CCOC4)c(NC(=O)/C=C/CN(C)C)cc23)c1 [Compound 13, (S,E)-4-(dimethylamino)-N-(4-((3-ethynylphenyl)amino)-7-((tetrahydrofuran-3-yl)oxy)quinazolin-6-yl)but-2-enamide] yielded a pIC50 (A549) of over 5.00, a pIC50 (EGFR (T790M/L858R)) of over 7.00 and a pIC50 (A431) of 5.51. The pIC50 (NCI—H1975) was over 5.00, the solubility at 30 min [4, 6] was 150 µg/mL (≈ 328 µM) and the solubility at 30 min [4, 7] was 25 µg/mL (≈ 54.6 µM). For the same compound, the “Day 7 Weight change” value [2] was 0.1%, the “efficacy in the NCI—H1975 xenograft study” value [5] was “good efficacy” and the pIC50 (SK—OV-3) was over 5.00. The pIC50 (SK—Br-3) was over 5.00 and the pIC50 (BT474) was 7.24.

For C#Cc1cccc(Nc2ncnc3cc(O[C@H]4CCOC4)c(NC(=O)/C=C/CN(CC)CC)cc23)c1 [Compound 20, (S,E)-4-(diethylamino)-N-(4-((3-ethynylphenyl)amino)-7-((tetrahydrofuran-3-yl)oxy)quinazolin-6-yl)but-2-enamide], the pIC50 (A549) was over 5.00, the “Body weight change, Day 7” value [1] was 1.5% and the “Body weight change, Day 10” value [1] was 4.3%. It also gave a pIC50 (NCI—H1975) of over 5.00, a solubility at 30 min [4, 6] of 3370 µg/mL (≈ 6950 µM) and a solubility at 30 min [4, 7] of 238 µg/mL (≈ 490 µM). The “Day 7 Weight change” value [2] was 3.5%, the ALT [3] was 41.67 and the AST [3] was 142.33. For the same compound, the pIC50 (SK—OV-3) was over 5.00, the pIC50 (SK—Br-3) was over 5.00 and the “Tumor growth inhibition (TGI, %)” value (A431 cell line xenograft) was 94%.
